In patent US20250214951A1, “3-PHENYLISOXAZOLE DERIVATIVE, AND PHARMACEUTICAL COMPOSITION FOR PREVENTING OR TREATING EYE DISEASE, CONTAINING SAME AS ACTIVE INGREDIENT” (VASTHERA CO., LTD., priority 2022, published 2025):

Legend:
[1] = system: A2E-BDP present in human retinal pigment epithelial cells (ARPE-19); experiment: Screening of ability to remove A2E-fluorescent labeling substance (A2E-BDP), lysate fluorescence; type: cell-based; conditions: ARPE-19, 24 h, ARPE-19 loaded with 10 μM A2E-BDP 24 h, test compound 50 μM once, fluorescence ex 485/em 535 nm, read-out: Capacity (%) to remove A2E-BDP at 50 μM
Description: (§1) The human retinal pigment epithelial cell line (ARPE-19) used in the experiment was provided by ATCC (American Type Culture Collection). The ARPE-19 cell line was cultured in DMEM medium containing 10% FBS. After culture, the cells were dispensed into 96-well plates at a concentration of 4×10^3 cells/well and cultured for 24 hours. The ARPE-19 cell line was treated with A2E-fluorescent labeling substance (A2E-BDP) at a concentration of 10 μM for 24 hours to induce the accumulation of A2E-BDP in the ARPE-19 cell line.
(§2) In order to evaluate the intracellular A2E removal ability of the compound of the present invention, an easily detectable A2E-fluorescent labeling substance (A2E-BDP) was used. The ARPE-19 cells prepared by the above method were treated with each test compound at a concentration of 50 μM once, and then cultured for 24 hours. The cells were lysed by adding a cell lysis buffer containing a protease inhibitor (50 mM Tris-chloride, pH 8.0, 150 mM sodium chloride, 1% NP-40, 1% sodium deoxycholate, 1% sodium dodecyl sulfate, and 2 mM ethylenediamine tetraacetic acid) to each 96-well. The prepared cell lysate was transferred to a white 96-well plate, and the fluorescence intensity was measured using a fluorescence microplate reader (VICTOR™ X3, Perkin Elmer, USA) (excitation 485 nm, emission 535 nm).

A2E-BDP in ARPE-19 cells [2] = experiment: A2E-BDP removal ability by concentration of other example compounds; type: cell-based, human; conditions: indicated concentrations; FIG. 13
Description: as §1, §2
The A2E-fluorescent labeling substance (A2E-BDP) removal ability was evaluated according to Experimental Example 1 (except that the test compound was treated at the indicated concentration).

[3] = system: p62 protein phosphorylated at serine 349 (p-p62 (S349)); experiment: Autophagy activation by increase of p-p62 (S349), Western immunoblotting; type: cell-based, human; conditions: indicated concentrations; FIG. 14
Description: The cells were treated with the test compounds at the indicated concentrations, and the autophagy activation effect through the increase of p62 protein (p-p62 (S349)) phosphorylated at serine 349 residue was measured by Western immunoblotting using an anti-p-p62 antibody, and the results are shown in FIG. 14. The increase in the intracellular P-p62 ([…]) level is one of the major indicators of autophagy activation.

LC3-II [4] = experiment: LC3-II production capacity at 10 μM (Table 4); type: cell-based; conditions: Homo sapiens, 12 h
Description: (§3) ARPE-19 was dispensed into a 6-well plate at a concentration of 1×10^5 cells/well and cultured for 24 hours. Then, cells were treated with example 17 compound of the present invention at concentrations of 10, 25, and 50 μM for 12 hours. Then, a cell lysis buffer containing a protease inhibitor was added to prepare a cell lysate. The LC3-II level was measured by Western immunoblotting using an anti-LC3-II antibody (Cell Signaling Technology, MA, USA). As an internal control, an antibody against β-actin (Cell Signaling Technology) was used and measured by Western immunoblotting in the same manner as above, and is shown in FIG. 6 (upper graph).
(§4) The autophagy activation effect of example compounds expected to have autophagy activation ability and low cytotoxicity among the example compounds in Table 2 above in human retinal pigment epithelial cells was evaluated according to Experimental Example 7. That is, the autophagy activation effect through the increase of LC3-II was evaluated in a concentration-dependent manner, and the results are shown in FIGS. 15 and 16.

LC3-II [5] = experiment: Concentration-dependent autophagy activation through increase of LC3-II (FIGS. 15 and 16); type: cell-based, human
Description: as §3, §4

A2E-BDP in ARPE-19 cells [6] = experiment: Removal of A2E-BDP by concentration, fluorescence and phase contrast microscopy; type: cell-based, human; conditions: ARPE-19 with A2E-BDP; 10, 25, 50 μM, 24 h; FIG. 1
Description: ARPE-19 cell line was dispensed into a 24-well plate at a concentration of 4×10^4 cells/well and cultured for 24 hours. In order to induce A2E-BDP accumulation in ARPE-19 cell line, the cells were treated with […] of 10 μM for 24 hours. The A2E-BDP-containing ARPE-19 cells were treated with compound 17 (10, 25, 50 μM) for 24 hours. The level of A2E-BDP in each cell was measured as a fluorescence image at 510 nm using a Nikon Eclipse Ti—U fluorescence microscope (Tokyo, Japan). In addition, the change in cell number according to compound treatment was observed using a general phase contrast microscope, and the results are shown in FIG. 1. Meanwhile, lutein was used as a control substance.

Structure (SMILES)	inhibition at 50 µM [1]	A2E-BDP removal ability by concentration (amount of A2E) (A2E-BDP in ARPE-19 cells [2])	autophagy activation through increase of p-p62 (S349) [3]	fold induction at 10 µM (LC3-II [4])	autophagy activation effect through the increase of LC3-II (LC3-II [5])	A2E-BDP fluorescence intensity (fluorescence microscope) (A2E-BDP in ARPE-19 cells [6])
COc1ccc(Br)cc1-c1cc(COCc2ccccc2)on1 [Example 11, 5-((benzyloxy)methyl)-3-(5-bromo-2-methoxyphenyl)isoxazole]	≥ 60%	concentration-dependent decrease in the amount of A2E	activated autophagy in a concentration-dependent manner	–	–	–
C=CCc1ccc(OC)c(-c2cc(COCc3ccccc3)on2)c1 [Example 18, 3-(5-allyl-2-methoxyphenyl)-5-((benzyloxy)methyl)isoxazole]	≥ 60%	concentration-dependent decrease in the amount of A2E	activated autophagy in a concentration-dependent manner	–	–	–
COc1ccc(Br)cc1-c1cc(CN2CCN(C(=O)OC(C)(C)C)CC2)on1 [Example 21, tert-butyl 4-((3-(5-bromo-2-methoxyphenyl)isoxazole-5-yl)methyl)piperazine-1-carboxylate]	≥ 60%	concentration-dependent decrease in the amount of A2E	activated autophagy in a concentration-dependent manner	–	–	–
CCCc1ccc(OC)c(-c2cc(CN3CCN(C(=O)OC(C)(C)C)CC3)on2)c1 [Example 26, tert-butyl 4-((3-(2-methoxy-5-propylphenyl)isoxazole-5-yl)methyl)piperazine-1-carboxylate]	≥ 60%	concentration-dependent decrease in the amount of A2E	activated autophagy in a concentration-dependent manner	–	–	–
COc1ccc(Br)cc1-c1cc(CN2CCNCC2)on1 [Example 28, 3-(5-bromo-2-methoxyphenyl)-5-(piperazine-1-ylmethyl)isoxazole]	–	–	–	4.6	excellent autophagy activation effects	–
CCCc1ccc(OC)c(-c2cc(CN3CCNCC3)on2)c1 [Example 30, 3-(2-methoxy-5-propylphenyl)-5-(piperazine-1-ylmethyl)isoxazole]	–	–	–	2.3	excellent autophagy activation effects	–
COc1ccc(C(F)(F)F)cc1-c1cc(CN2CCNCC2)on1 [Example 34, 3-(2-methoxy-5-(trifluoromethyl)phenyl)-5-(piperazine-1-ylmethyl)isoxazole]	–	–	–	2.5	excellent autophagy activation effects	–
C=CCc1ccc(OC)c(-c2cc(CN3CCN(C)CC3)on2)c1 [Example 41, 3-(5-allyl-2-methoxyphenyl)-5-((4-methylpiperazine-1-yl)methyl)isoxazole]	–	–	–	2.3	excellent autophagy activation effects	–
CCCc1ccc(OC)c(-c2cc(CN3CCN(C)CC3)on2)c1 [Example 42, 3-(2-methoxy-5-propylphenyl)-5-((4-methylpiperazine-1-yl)methyl)isoxazole]	–	–	–	2.3	excellent autophagy activation effects	–
COc1ccc(C(C)C)cc1-c1cc(CN2CCNCC2)on1 [Example 47, 3-(5-isopropyl-2-methoxyphenyl)-5-(piperazine-1-ylmethyl)isoxazole]	–	–	–	2.7	excellent autophagy activation effects	–
CCCc1cc(-c2cc(CN3CCNCC3)on2)c(OC)cc1F [Example 58, 3-(4-fluoro-2-methoxy-5-propylphenyl)-5-(piperazine-1-ylmethyl)isoxazole]	–	–	–	3.2	excellent autophagy activation effects	–
CCCc1cc(-c2cc(CN3CCN(C)CC3)on2)c(OC)cc1F [Example 59, 3-(4-fluoro-2-methoxy-5-propylphenyl)-5-((4-methylpiperazine-1-yl)methyl)isoxazole]	–	–	–	3.1	excellent autophagy activation effects	–
CCCc1ccc(OC(F)(F)F)c(-c2cc(CN3CCN(C)CC3)on2)c1 [Example 60, 5-((4-methylpiperazine-1-yl)methyl)-3-(5-propyl-2-(trifluoromethoxy)phenyl)isoxazole]	–	–	–	3.1	excellent autophagy activation effects	–
CC1=C[C@H](O)CC(C)(C)[C@H]1/C=C/C(C)=C/C=C/C(C)=C/C=C/C=C(C)/C=C/C=C(C)/C=C/C1=C(C)C[C@@H](O)CC1(C)C [lutein, reference compound]	–	–	–	–	–	a decrease in fluorescence intensity was observed
